For `CCOC(=O)C(C#N)=CNc1ncccc1CC`, the melting point was 122 to 125 °C.
Work on `COc1ccc2c(c1)C(=O)C(n1ccnc1)CO2` (stereo unspecified) yielded a melting point of 150 to 152 °C.
For `Cc1ccn(-c2ccc(C(=O)c3cccc4c3Nc3ncccc3C(C)N4)c(C(F)(F)F)c2)n1` (stereo unspecified), the melting point was 188 to 190 °C.
`Cc1ccc(C(=O)c2ccc(CC#N)n2C)c(Cl)c1` showed a melting point of 116 to 118 °C.
With `NS(=O)(=O)c1ccsc1C1=CC(=O)CCC1` the melting point was 140 to 147 °C.
In the case of `CC(C(=O)O)c1ccc2cc(OCC=Cc3ccccc3)ccc2c1` (stereo unspecified), the melting point is reported as 175 to 177 °C.
Work on `CC(=O)SCC(Cc1ccccc1)C(=O)Nc1c(Cl)cccc1C(=O)O` (stereo unspecified) yielded a melting point of 123 to 127 °C.
With `CCOc1ccc2c(c1)C(Cl)Cc1ccc(F)cc1S2` (stereo unspecified) the melting point was 110 to 111 °C.
`CC1=CN(C)C2=NC(C)N(c3ccc(C#N)cc3)C2=C1` (stereo unspecified) gave a melting point of 260 to 262 °C.
Molecule `Cc1cc(=O)oc2nn(Cc3cccc(Cl)c3)c(C)c12` has a melting point of 148 to 149 °C.
In the case of `O=c1[nH]c2cc(Cl)c(Cl)cc2n2ccnc12`, the melting point is reported as > 300 °C.
For `O=c1c2n[nH]c3ccc(Cl)cc3c-2nn1-c1ccccc1`, the melting point was > 280 °C.
Molecule `CC(=O)OC12Oc3cc(C)ccc3C1(OC(C)=O)C(=O)c1ccccc12` (stereo unspecified) has a melting point of 167 to 169 °C.
For `CCOC(=O)C(=Cc1cc(C(C)(C)C)c(O)c(C(C)(C)C)c1)c1cccnc1`, the melting point was 120 °C.
`C=C(C)C(=O)c1cc(O)c(O)c([N+](=O)[O-])c1` showed a melting point of 98 to 102 °C.
With `O=C1C(=O)c2ccccc2C2=C1SCC1(CCN(C(=O)c3cn4c5c(cccc35)CCC4)CC1)O2` the melting point was 265 to 267 °C.
With `OCc1c(C(F)(F)F)n(Cc2ccccc2)c2ccccc12` the melting point was 96 °C.
Work on `O=S(=O)(NC(=NO)Nc1ccc(Cl)cc1)c1ccc(-c2ccccn2)s1` yielded a melting point of 210 °C.
`Cn1nc(C(=O)O)c(=O)n(-c2ccccc2)c1=O` gave a melting point of 195 to 198 °C.
In the case of `COc1ccc(Oc2ncc(Br)cn2)cc1`, the melting point is reported as 92 °C.
Molecule `CC(=O)Nc1ccc(F)c(-c2ccccn2)c1F` has a melting point of 132 to 133 °C.
Work on `CC(=O)SCCCCC(=O)c1cccnc1` yielded a melting point of 43 °C.
Work on `CCOC(=O)c1c(NCc2ccccc2)n[nH]c1C` yielded a melting point of 149 to 159 °C.
`CN(C)C=C1CC(=O)c2ccccc2NC1=O` gave a melting point of 203 to 205 °C.
Work on `COc1ccc(C(=O)c2c(CO[N+](=O)[O-])[nH]c(=O)n2C(C)=O)cc1` yielded a melting point of 165 to 166 °C.
Molecule `CC(C)(C)OC(=O)c1ncn2c1c(C(=O)N1CCCC1)cc1ccccc12` has a melting point of 216 to 218 °C.
Work on `Clc1nnc(Nc2cc(CN3CCCC3)cc(CN3CCCC3)c2)c2ccccc12` yielded a melting point of 180 to 183 °C.
With `CCCCCCCCCC/C=C\COCc1ccc(CCC(=O)O)cc1` the melting point was 35 to 36 °C.
In the case of `N#CC1(Nc2ccccc2)CCN([C@@H]2CC[C@H]3CCCc4cccc2c43)CC1` (racemic), the melting point is reported as 142 °C.
In the case of `Cc1c(OCCSCc2ccco2)ccnc1CNc1ncncc1Cl`, the melting point is reported as 129 to 130 °C.
Work on `CC(C)(C)c1csc(-c2cc3cc(Cc4nc(-c5ccccc5)c(CC(=O)O)s4)ccc3o2)n1` yielded a melting point of 174 to 180 °C.
`CC1(C)C(=O)CC(=O)C(C)(C)C1=O` showed a melting point of 92.5 to 93 °C.
`Fc1ccc(-c2cc(SC(F)(F)C(F)F)[nH]c2-c2ccc(F)cc2)cc1` showed a melting point of 70.5 to 71 °C.
In the case of `CCOC(=O)C1=Cc2cc([N+](=O)[O-])ccc2OC1C(F)(F)F` (stereo unspecified), the melting point is reported as 111 to 115 °C.
`CCCCCCCCCCCCCCCCOC(=O)C(C)Nc1cccc(O)c1` (stereo unspecified) gave a melting point of 35 to 40 °C.
`CC(C)CCOc1cccc2oc(-c3nnn[nH]3)cc(=O)c12` gave a melting point of 165 to 166 °C.
`O=C(OCCCCCCO)c1ccc(Oc2c3c(c(Oc4ccc(C(=O)OCCCCCCO)cc4)c4ccccc24)C(=O)c2ccccc2C3=O)cc1` gave a melting point of 172 to 173 °C.
With `NS(=O)(=O)c1cc2c(s1)S(=O)(=O)N(CCO)C(CN1CCOCC1)=C2` the melting point was 104 to 108 °C.
For `CCOc1cccc2oc(C(N)=O)cc12`, the melting point was 113 °C.
Molecule `CCCn1c(=O)c2c(NC)n[nH]c2n(CCOCc2ccccc2)c1=O` has a melting point of 224 to 226 °C.
Molecule `COC(=O)c1ccc(CSC)nc1C1=NC(C)(C(C)C)C(=O)N1` (stereo unspecified) has a melting point of 114 to 115 °C.
Molecule `CCN(CC)C(=O)CCc1c[nH]c2ccc(Br)cc12` has a melting point of 128 °C.
`Fc1ccc2[nH]cc(C3=CCN(CC4COc5cccnc5O4)CC3)c2c1` (stereo unspecified) gave a melting point of 124 °C.
With `CCOC(=O)C(=O)CC(=O)c1cn(Cc2ccc3ccccc3n2)c2ccccc2c1=O` the melting point was 237 to 238 °C.
`Nc1ccc(Br)cc1C(O)c1ccccn1` (stereo unspecified) showed a melting point of 104 to 105 °C.
Work on `COc1ccc(C2CCC(=O)Nc3ccccc3C2=O)cc1` (stereo unspecified) yielded a melting point of 244 to 245 °C.
Molecule `NC(=O)c1ccc(NC2CCN(Cc3ccccc3)C2)cc1` (stereo unspecified) has a melting point of 160 to 162 °C.
For `CCCCCCCCCCCCCCCCCCOC(=O)c1ccc(N)cc1`, the melting point was 60 to 70 °C.
For `OC[C@@H](O)CCOc1ccc(-c2nc3c4ccccc4c4ccccc4c3[nH]2)cc1`, the melting point was 263 to 265 °C.
In the case of `CS(=O)c1ccc(C2=C(Br)C(=O)C(C)(C)O2)cc1` (stereo unspecified), the melting point is reported as 117 to 118 °C.
For `CCOP(=O)(/C=C/c1cn(-c2ccccc2)nc1OCc1ccc(OCc2nc(-c3cccc(C(=O)O)c3)oc2C)cc1)OCC`, the melting point was 153 to 155 °C.
Work on `Cc1sc(S(N)(=O)=O)cc1[N+](=O)[O-]` yielded a melting point of 120 °C.
In the case of `C=CCC(N)(Cc1ccccc1)C(N)=O` (stereo unspecified), the melting point is reported as 120 to 121 °C.
`CCCc1c(OCCOc2ccc(C(=O)NCCCCc3cccnc3)cc2)ccc(C(C)=O)c1O` showed a melting point of 93 °C.
Work on `COc1ccc(CCc2ccc(NC(=O)C(=O)c3cccc(C(C)(C)C)c3O)cc2)cc1OC` yielded a melting point of 143 to 144 °C.
In the case of `CON=C(C(=O)OC)c1nsc(N)n1`, the melting point is reported as 172 to 174 °C.
For `COc1cccc(CCc2c(CCNC(=O)CCCCC(=O)NCCc3ccccc3)ccc(OC)c2OC)c1`, the melting point was 150 to 151 °C.
With `CCN(C(=O)c1ccccc1C(=O)c1ccccc1)C1CCCCC1NS(=O)(=O)c1ccc(C)cc1` (stereo unspecified) the melting point was 202 to 204 °C.
`COc1nc(C)c(N2CCCn3c2nc2c(OC)ccc(C(OC(F)F)C(F)(F)F)c23)c(C)n1` (stereo unspecified) showed a melting point of 201 to 203 °C.
Molecule `O=[N+]([O-])c1cc2c(cc1[N+](=O)[O-])OC(CC(F)(F)F)(C(F)(F)F)O2` has a melting point of 101 to 103 °C.
With `O=C(N[C@H](Cc1ccc(C(F)(F)F)cc1)[C@@H](O)c1ccc(Oc2ccccc2)cc1)c1ccc(F)c2ccccc12` (racemic) the melting point was 184 to 185 °C.
With `N=C1SCCN1c1ccc(N)cc1` the melting point was 148 °C.
With `c1ccc2c(c1)CC1(CCNCC1)O2` the melting point was 56 to 58.5 °C.
`Nc1cccc(-c2ccc(CCN3CCN(C(=O)Cc4ccccc4)CC3)cc2)n1` gave a melting point of 135 to 137 °C.
`Nc1cc2c3c(cccc3c1N1CCCC1)C(=O)N(O)C2=O` showed a melting point of 253 to 256 °C.
`CCCNC(=O)Nc1c(C)c(C)c2c(c1C)C(c1ccc(C(C)C)cc1)CO2` (stereo unspecified) gave a melting point of 177 to 178 °C.
`O=C(Nc1nc(C(Cl)(Cl)Cl)ns1)C(Cl)(Cl)Cl` gave a melting point of 158 °C.
In the case of `O=C(c1cc(-c2ccccc2)c(=O)n2c1-c1ccccc1CN2)N1CCOCC1`, the melting point is reported as 254 to 257 °C.
`C=C(c1cc(C(C)(C)C)cc2c1CCC2(C)C)c1sccc1C=O` showed a melting point of 148 to 150 °C.
Work on `CNc1nc(-c2cccc(NC(=O)c3ccccc3)c2)c2cc(OC)c(OC)cc2n1` yielded a melting point of 146 to 148 °C.
`O=C(O)CCNC(=O)CCC(=O)Nc1cccc2ccccc12` gave a melting point of 180 to 182 °C.
`Nc1ccc(CS(=O)(=O)NCCc2ccccc2)cc1` gave a melting point of 123 to 125 °C.
Work on `O=C(O)c1ncn2c1CN=C(c1ccccc1)c1cc(Cl)ccc1-2` yielded a melting point of 268 to 270 °C.
`CCN1C(=O)COc2ccc(-c3sc(N)nc3-c3cccc(C)n3)cc21` showed a melting point of 228 to 230 °C.
Work on `CCN1CCN(CC/C=C/c2cc3ncc(C#N)c(Nc4cc(OC)c(Cl)cc4Cl)c3cc2OC)CC1` yielded a melting point of 129 to 131 °C.
For `COc1ncc(Cl)c(C)c1Br`, the melting point was 44 to 45 °C.
With `CN(C)CC(O)C1=CC2(CCCC2)c2ccccc21` (stereo unspecified) the melting point was 133 to 134 °C.
Work on `NC(=O)c1ccc(-c2ccnc(C(=O)N(O)Cc3ccccc3)c2)cc1` yielded a melting point of 155 to 160 °C.
Molecule `CC(C)=Cc1ccc(-c2c(C(C)C)ccc(CO)c2C(C)C)nc1` has a melting point of 93 to 95 °C.
Molecule `CCOC(=O)c1ccc(C(F)(F)F)c(Br)n1` has a melting point of 40 to 40.5 °C.
In the case of `O=c1[nH]nc2c3c(cccc13)Oc1ccc(COP(=O)(O)O)cc1-2`, the melting point is reported as 246 to 252 °C.
`Nc1ccc(-c2nc(C(=O)Nc3nccs3)c(-c3ccc(C(F)(F)F)cc3)[nH]2)cc1` showed a melting point of 175 to 177 °C.
In the case of `CC(C)(C)c1cc(NC(=O)Nc2cccc(Oc3nc4ccccc4s3)c2)[nH]n1`, the melting point is reported as 110 to 111 °C.
`NC1CCCN(c2ncc3ncnc(Nc4ccc(F)c(Cl)c4)c3n2)CC1` (stereo unspecified) gave a melting point of 122 to 124 °C.
In the case of `O=C1CCC(N2Cc3cc(CNC(=O)c4ccc(Cl)c(Cl)c4)ccc3C2=O)C(=O)N1` (stereo unspecified), the melting point is reported as 260 to 262 °C.
With `COc1cc(CC(COC(C)=O)NC(=O)c2ccccc2)cc2c1OC(C)(C)C2` (stereo unspecified) the melting point was 141 to 142 °C.
In the case of `COC(=O)C(C(C)=O)=C(N)C(F)(F)F`, the melting point is reported as 63 to 65 °C.
With `CC1(C)CC(S(=O)(=O)Cc2c(C(F)(F)F)nn3c2OCCC3)=NO1` the melting point was 151 to 152 °C.
Work on `O=C(O)c1cccc(N(CCc2ccccc2)c2nnc(-c3cccc(Oc4cccc(C(F)(F)F)c4)c3)s2)c1` yielded a melting point of 92 to 93 °C.
Molecule `O=C(NN1CCNC1=O)c1cc(=O)c(O)c[nH]1` has a melting point of 270 to 275 °C.
Work on `O=C(Nc1ccc(Oc2ccnc(NCCN3CCOCC3)n2)c2ccccc12)c1cc(F)cc(N2CCOCC2)c1` yielded a melting point of 112 to 114 °C.
`O=C(O)COc1cccc2c1CCC(Cn1cc(C(c3ccccc3)c3ccccc3)ccc1=O)C2` (stereo unspecified) showed a melting point of 162 to 163 °C.
For `CN(C)S(=O)(=O)Nc1ccc(C(=O)Nc2ccccc2)cc1`, the melting point was 213 to 215 °C.
Molecule `COc1ccc(C(Sc2cc(Oc3ccc(Cl)cc3)ccc2N)C(O)C(=O)O)cc1` (stereo unspecified) has a melting point of 179 to 181 °C.
`COc1ccc(-c2cnc(NC(=S)Cc3ccccc3)c(Cc3ccccc3)n2)cc1` gave a melting point of 45 to 47 °C.
For `CN(C)C=NS(=O)(=O)c1ccc(Br)s1`, the melting point was 103 to 105 °C.
With `CCOC(=O)c1cn(CCN(CC)CC)c2oc(CN3CCOCC3)cc2c1=O` the melting point was 131 to 134 °C.
`O=C(Cc1cccc2ccccc12)NC1CCC2(O)C3Cc4ccc(O)c5c4C2(CCN3CC2CC2)C1O5` (stereo unspecified) showed a melting point of 213 to 215 °C.
`CCN(CC)C(C(C(=O)C(C)(C)C)n1cncn1)C(Cl)(Cl)Cl` (stereo unspecified) gave a melting point of 103 to 110 °C.
For `OC1CC2(CCCC2)Oc2ccc(Br)cc21` (stereo unspecified), the melting point was 123 to 124 °C.
For `CCCC(O)C(C)C(=O)NCc1ccccc1` (stereo unspecified), the melting point was 114 to 115 °C.

Reference: a melting point compilation (Tetko et al.; mined from patent text by program, amines drawn as free bases though some values may be those of a salt)
